What all share (format): physicochemical
Data set [1] in a line: Solubilisation with polymer of Herstellungsbeispiel 1 by Verfahren 1 (solid solution), HPLC-UV. The note with it: buffer with polymer, pH 6, 1440 min.
Data set [2] is described as follows: Solubilisation with polymer of Herstellungsbeispiel 2 by Verfahren 1 (solid solution), HPLC-UV. The note with it: buffer with polymer, pH 6, 1440 min. Here is the method: 0,5 g eines Polymers und 0,1 g einer ausgewählten Substanz wurden in DMF (ca. 20 ml) gelöst. Das Gemisch wurde gerührt und DMF wurde vollständig evaporiert, so daß eine […] der organischen Moleküle in dem Polymer erhalten wurde. […] […] Nach der Filtration wurde die Lösung mittels HPLC analysiert (Detektor UV) und die Konzentration der Substanzen bestimmt.

Data set [3] is described as follows: Solubility in distilled water. The note with it: no polymer, read-out: Löslichkeit in destilliertem Wasser. The text has this:
Verschiedene schlecht wasserlösliche Substanzen wurden eingesetzt, um die Eignung der erfindungsgemäßen Polymere als Lösungsvermittler zu testen. Tabelle 1

SMILES strings stand for the structures. In brackets after ≈: the same amount, converted by molar mass.

Experimental findings from EP1763300B1 (priority 2004, dated 2006) are described below.

With `CCOC(=O)/C(Cl)=C/c1cc(N2C(=O)C3=C(CCCC3)C2=O)ccc1Cl` [Cinidon-Ethyl], the “Löslichkeit in Gegenwart von Polymer” value in data set [1] was 0,5 mg/l. The “in Gegenwart von Polymer” value in data set [2] was 57 mg/L. In addition, the solubility in data set [3] was determined as 0.057 µg/mL (≈ 0.145 µM).

In the case of `CC1(C)CCC(Cc2ccc(Cl)cc2)C1(O)Cn1cncn1` (centres unmarked) [Metconazol], in data set [3], the solubility was found to be 15 µg/mL (≈ 46.9 µM).

As for `CN1C(C(=O)Nc2ccccn2)=C(O)c2ccccc2S1(=O)=O` [Piroxicam], the “Löslichkeit in Gegenwart von Polymer” value in data set [1] was determined as 92 mg/L. In data set [2], the “in Gegenwart von Polymer” value amounted to 167 mg/L. Moreover, in data set [3], the solubility worked out at 23 µg/mL (≈ 69.4 µM).

Turning to `COC(=O)N(OC)c1ccccc1COc1ccn(-c2ccc(Cl)cc2)n1` [Pyraclostrobin], the solubility in data set [3] came out at 2.4 µg/mL (≈ 6.19 µM).

With `CCCCC(CC)COC(=O)c1ccc(Nc2nc(Nc3ccc(C(=O)OCC(CC)CCCC)cc3)nc(Nc3ccc(C(=O)OCC(CC)CCCC)cc3)n2)cc1` (centres unmarked) [Uvinul T150®, Octyltriazon], the “Löslichkeit in Gegenwart von Polymer” value in data set [1] is 2,3 mg/l. Besides, the “in Gegenwart von Polymer” value in data set [2] worked out at 79 mg/L. Besides, in data set [3], the solubility amounted to 0.007 µg/mL (≈ 0.0085 µM).
